Source: article PMC10916400, “Effect of the aggregated protein dye YAT2150 on Leishmania parasite viability” (Antimicrobial Agents and Chemotherapy, 2024)
Residues, ends and D or L forms follow the SMILES beside them.

Columns and labels:
[1] = tested on: L. infantum promastigotes; assay: microbe, parasite or virus in culture; format: cell-based, Leishmania infantum; details: for growth inhibition: promastigotes, 72 h, 100 µM; for Selectivity index (CC50/IC50): CC50 in human umbilical vein endothelial cells / IC50 for promastigotes; for IC50: L. infantum promastigotes, in vitro
Protocol: L. infantum (MHOM/ES/2016/CATB101) promastigotes were maintained at 26°C in complete Schneider’s medium (Schneider’s insect medium supplemented with 10% FBS, 25 µg/mL gentamycin, 1% penicillin-streptomycin, and 1% sterile human urine, pH 6.7). For growth inhibition assays, promastigotes were used in the logarithmic growth phase, whereas for the infection of macrophages and generation of amastigotes they were used in the stationary phase. Axenic amastigotes were obtained following established protocols ([40], [57][–][59]); briefly, 1 × 10^7 promastigotes/mL in stationary phase were cultured in Schneider’s insect medium supplemented with 20% FBS, 25 µg/mL gentamycin, and 3.9 g/L of 2-(N-morpholino)ethanesulfonic acid, at pH 5.4 and 37°C. After 48 h, the typical rounded morphology of axenic amastigotes and their flagellum shortening could be observed. This culture was used within a week after its preparation.
In 96-well microtiter plates (Nunclon Delta surface; Thermo Fisher Scientific Inc.), serial dilutions (1:2) of the drugs or peptides were performed, either free or loaded in nanoformulations, in 100 µL of complete Schneider’s medium, to which one volume of 2 × 10^6 logarithmic growth-phase L. infantum promastigotes/mL in the same buffer was added. After 48 h, resazurin sodium salt was incorporated at a final concentration of 0.00125% and the plates were incubated at 26°C for another 24 h, when fluorescence from resorufin was measured as described above.

promastigotes = tested on: promastigotes; design: method as in PMID 16316700; details: cited from earlier work
L. infantum amastigotes = assay: Amastigote growth inhibition assay (parasite rescue and transformation, RAW 264.7 macrophages); format: cell-based, Leishmania infantum; details: in vitro
Protocol: Compound activity on amastigotes was determined following the parasite rescue and transformation assay ([61]). RAW 264.7 macrophages were seeded in 96-well microtiter plates at 10^5 cells/mL of DMEM supplemented with 10% FBS and 1% penicillin-streptomycin (complete DMEM, DMEMc) in a final volume of 200 µL per well. After an overnight incubation (37°C, 5% CO2) to allow cell adherence, the medium was removed and 10^6 L. infantum promastigotes/mL were added (1:10 macrophage:promastigote ratio) in DMEM supplemented with 2% FBS and 1% penicillin-streptomycin (DMEM 2% FBS). After 24 h, parasites not internalized by macrophages were removed by washing (3×, PBS) and dilutions in DMEM 2% FBS of free or liposome-encapsulated compounds were added. After 48 h, the medium was removed, cells were washed three times with PBS, and 40 µL of 0.05% SDS in complete Schneider’s medium was added; after 40 s, 160 additional µL/well of complete Schneider’s medium was added and plates were incubated at 26°C for another 48 h. Then, resazurin sodium salt was incorporated at a final concentration of 0.00125% and plates were incubated for 24 h more in the same conditions. Afterwards, resorufin fluorescence was measured as above.

in vitro = format: cell-based; details: human umbilical vein endothelial cells; for CC50: 48 h
Protocol: Human umbilical vein endothelial cells were maintained in M-199 supplemented with 10% fetal bovine serum (FBS) and 1% penicillin-streptomycin at 37°C, 5% CO2, and seeded in 96-well plates at a density of 50,000 cells/mL. After allowing cell adherence for 24 h, the medium was removed, and drugs or nanoformulations were added in M-199 supplemented with 1% penicillin-streptomycin. Plates were incubated for 48 h, and then, the medium in each well was replaced by 100 µL of M-199 containing penicillin-streptomycin and 0.00125% resazurin sodium salt (Sigma-Aldrich Corporation). Plates were incubated for 4 h, and resorufin fluorescence emission was measured (λex/em: 535/590 nm) in a Tecan Infinite 200 PRO equipment (Tecan Trading AG).

[2] = Leishmania infantum, RAW264.7, L. infantum amastigotes in RAW 264.7 macrophages
[3] = L. infantum amastigotes in RAW 264.7 macrophages

For CC[C@H](C)[C@H](NC(=O)[C@H](C)NC(C)=O)C(=O)N[C@@H](CO)C(=O)N[C@H](C(=O)N[C@@H](Cc1ccccc1)C(=O)N[C@@H](Cc1ccccc1)C(=O)N[C@@H](CC(C)C)C(=O)N[C@@H](CCC(=O)O)C(=O)N1CCC[C@H]1C(N)=O)C(C)C (Ac-AISVFFLEP-NH2), the growth inhibition [1] was 0%.
In the case of C[C@@H]1[C@H](O)[C@@H](C)/C=C/C=C/C=C/C=C/C=C/C=C/C=C/[C@H](O[C@@H]2O[C@H](C)[C@@H](O)[C@H](N)[C@@H]2O)C[C@@H]2O[C@](O)(C[C@@H](O)C[C@@H](O)[C@H](O)CC[C@@H](O)C[C@@H](O)CC(=O)O[C@H]1C)C[C@H](O)[C@H]2C(=O)O [Amphotericin B], the IC50 (promastigotes) is given as 0.04 µM.
CC[C@H](C)[C@H](NC(=O)[C@H](Cc1ccccc1)NC(=O)[C@H](CC(N)=O)NC(=O)[C@H](CC(=O)O)NC(C)=O)C(=O)N[C@@H](Cc1ccccc1)C(=O)NCC(=O)N[C@@H](CCC(N)=O)C(N)=O [DNFIFGQ, Acetyl-DNFIFGQ-amide] (Ac-DNFIFGQ-NH2) gave a growth inhibition [1] of 2%.
With COc1cc2c(cc1OC)C(=O)C(CC1CCN(CCCNc3c4c(nc5cc(Cl)ccc35)CCCC4)CC1)C2 (stereo not drawn) [DONE3TCl] the “Selectivity index (CC50/IC50)” value [1] was 6.0, the IC50 ([1]; Leishmania infantum) was 2.09 ± 0.4 µM and the IC50 (L. infantum amastigotes; [2]) was 0.62 ± 0.08 µM. For the same compound, the CC50 (in vitro) was 12.6 ± 2.2 µM.
CC1=CC2Cc3nc4cc(Cl)ccc4c(NCCCCCCCNc4c5c(nc6ccccc46)CCCC5)c3C(C1)C2 (stereo not drawn) [HUP7TH] showed an IC50 [1] of 1.23 ± 0.42 µM, an IC50 (L. infantum amastigotes; [3]) of 0.92 ± 0.38 µM and a CC50 at 48 h (in vitro) of 7.8 ± 3.4 µM.
For CC1=CC2Cc3nc4cc(Cl)ccc4c(NCCCCCCCCNc4c5c(nc6ccccc46)CCCC5)c3C(C1)C2 (stereo not drawn) [HUP8TH], the “Selectivity index (CC50/IC50)” value [1] was 4.9, the IC50 ([1]; Leishmania infantum) was 0.99 ± 0.47 µM and the IC50 (L. infantum amastigotes; [2]) was 1.63 ± 0.34 µM. The CC50 (in vitro) was 4.9 ± 1.3 µM.
For CC1=CC2Cc3nc4ccccc4c(NCCCCCCCCCCNc4c5c(nc6ccccc46)CCCC5)c3C(C1)C2 (stereo not drawn) [HUPH10TH], the IC50 [1] was 0.72 ± 0.11 µM, the IC50 (L. infantum amastigotes; [3]) was 0.97 ± 0.21 µM and the CC50 at 48 h (in vitro) was 3.4 ± 0.1 µM.
In the case of CC1=CC2Cc3nc4cc(Cl)ccc4c(NCCCN(C)CCCNc4c5c(nc6cc(Cl)ccc46)CCCC5)c3C(C1)C2 (stereo not drawn) [HUPNTCl], the “Selectivity index (CC50/IC50)” value [1] is reported as 3.1, the IC50 ([1]; Leishmania infantum) is reported as 2.03 ± 0.19 µM and the IC50 (L. infantum amastigotes; [2]) is reported as 1.04 ± 0.21 µM. The CC50 (in vitro) was 6.3 ± 0.5 µM.
In the case of CC1=CC2Cc3nc4cc(Cl)ccc4c(NCCCN(C)CCCNc4c5c(nc6ccccc46)CCCC5)c3C(C1)C2 (stereo not drawn) [HUPNTH], the IC50 [1] is reported as 2.37 ± 1.4 µM, the IC50 (L. infantum amastigotes; [3]) is reported as 1.52 ± 0.66 µM and the CC50 at 48 h (in vitro) is reported as 3.4 ± 1 µM.
